Source: patent US9072675B2, “Non-irritating benzoyl peroxide” (Essential Ingredients, Inc., priority 2010, dated 2015)

Test system: skin of the infrascapular regions of the back
Experiment: Cumulative irritation patch test (12 days, semi-occlusive patches)
Details: 25 subjects, 24 hour semi-occlusive patches over 12 days, daily score capped at 3; maximum 900
Description: Twenty-five subjects ages 20-65 were requested to bathe or wash as usual before arrival at the facility. Qualified subjects were then prepared for patch application by having the test sites wiped with alcohol and air-dried. […] Patches were applied for approximately a 24 hour period, then removed and discarded by the subject approximately two hours prior to grading. All induction patches were applied to the same sites unless the degree of reaction (cumulative grade 3) to a material or the adhesive necessitated removal. The skin adjacent to the patches was marked using a surgical marker or other suitable marking pen. Prior to each reapplication, the test sites were evaluated. At the final visit, no patches were applied and the patch sites were graded. Skin responses were evaluated according to the following scale by a technical associate of AMA Laboratories, Inc. (scorer) trained in the evaluation of skin using consistent adequate lighting from a 60-watt incandescent blue day light bulb to illuminate the patch area. All reasonable attempts were made to ensure that the same individual did all of the scoring of reactions to the test articles during the course of the study, and was blinded to the treatment assignments and any previous scores. […]

Compound: CCCCCCCCCCCCOS(=O)(=O)[O-].[Na+] [Sodium Lauryl Sulfate]
- total cumulative irritancy score: 78
